Test results reported in BindingDB's records for PubMed 1836757 (University of Heidelberg, 1991).

Molecular target: 5-hydroxytryptamine receptor 1A/1B/1D/2C (Homo sapiens, UniProt P08908+P28221+P28222+P28335)
Sequence (P08908 whole entry): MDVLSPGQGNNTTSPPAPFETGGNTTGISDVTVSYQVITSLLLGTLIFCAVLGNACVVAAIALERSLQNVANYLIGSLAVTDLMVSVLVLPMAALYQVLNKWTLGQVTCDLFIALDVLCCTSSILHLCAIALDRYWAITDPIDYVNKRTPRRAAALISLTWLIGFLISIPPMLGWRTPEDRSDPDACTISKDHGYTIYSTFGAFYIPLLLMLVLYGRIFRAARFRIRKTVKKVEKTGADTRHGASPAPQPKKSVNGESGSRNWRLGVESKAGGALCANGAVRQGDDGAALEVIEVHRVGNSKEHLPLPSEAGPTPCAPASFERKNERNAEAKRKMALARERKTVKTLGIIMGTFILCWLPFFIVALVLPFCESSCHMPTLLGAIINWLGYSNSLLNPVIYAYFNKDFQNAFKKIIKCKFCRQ
Sequence (P28222 whole entry): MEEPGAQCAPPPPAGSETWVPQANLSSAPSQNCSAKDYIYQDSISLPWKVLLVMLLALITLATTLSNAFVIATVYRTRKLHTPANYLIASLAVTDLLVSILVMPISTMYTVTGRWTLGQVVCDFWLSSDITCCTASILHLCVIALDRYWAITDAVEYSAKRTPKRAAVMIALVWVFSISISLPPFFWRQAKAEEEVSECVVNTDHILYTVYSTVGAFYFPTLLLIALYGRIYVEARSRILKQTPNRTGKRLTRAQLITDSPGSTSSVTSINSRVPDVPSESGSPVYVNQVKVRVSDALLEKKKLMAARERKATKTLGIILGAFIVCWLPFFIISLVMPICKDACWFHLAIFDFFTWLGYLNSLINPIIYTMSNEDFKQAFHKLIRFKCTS
Sequence (P28221 whole entry): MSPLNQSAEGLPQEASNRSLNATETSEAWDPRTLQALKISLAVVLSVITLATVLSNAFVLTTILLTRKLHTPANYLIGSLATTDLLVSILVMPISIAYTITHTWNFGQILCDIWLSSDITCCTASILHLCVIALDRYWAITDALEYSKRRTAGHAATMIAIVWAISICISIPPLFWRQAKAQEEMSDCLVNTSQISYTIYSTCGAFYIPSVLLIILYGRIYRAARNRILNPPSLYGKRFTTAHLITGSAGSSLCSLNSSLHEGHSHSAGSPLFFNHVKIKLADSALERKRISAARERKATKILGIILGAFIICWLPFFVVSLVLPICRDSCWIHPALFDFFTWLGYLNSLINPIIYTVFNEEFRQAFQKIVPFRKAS
Sequence (P28335 whole entry): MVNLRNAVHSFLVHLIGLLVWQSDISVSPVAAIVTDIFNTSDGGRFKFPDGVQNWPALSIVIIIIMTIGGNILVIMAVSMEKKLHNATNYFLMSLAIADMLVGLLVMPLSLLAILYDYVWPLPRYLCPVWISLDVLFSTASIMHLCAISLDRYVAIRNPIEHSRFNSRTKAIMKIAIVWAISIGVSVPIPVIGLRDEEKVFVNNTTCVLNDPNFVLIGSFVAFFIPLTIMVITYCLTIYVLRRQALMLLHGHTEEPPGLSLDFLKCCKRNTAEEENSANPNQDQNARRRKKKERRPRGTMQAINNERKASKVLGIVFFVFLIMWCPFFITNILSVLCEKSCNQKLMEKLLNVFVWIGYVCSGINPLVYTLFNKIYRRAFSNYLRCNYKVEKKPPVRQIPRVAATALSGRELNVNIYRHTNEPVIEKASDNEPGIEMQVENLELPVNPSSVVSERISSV

| SMILES | Ki [µM] |
| --- | --- |
| CN1C2CCC1CC(OC(=O)c1c[nH]c3ccccc13)C2 (configuration not stated) | > 10 |
| CC[C@@H](CO)NC(=O)[C@@H]1C=C2c3cccc4c3c(cn4C)C[C@H]2N(C)C1 | 0.436 |
